Experimental data from US12492163B2, “9H-fluorene derivatives or their pharmaceutically acceptable salts” (priority 2020, dated 2025).

Assays:
[1] = biological target: human plasma butyrylcholinesterase (hBuChE) (Homo sapiens (Human), UniProt P06276); experiment: Ellman's test, inhibition of human plasma butyrylcholinesterase; format: biochemical
Protocol: (§1) The spectrophotometric Ellman's test [Ellman et al.] modified for assays in 96-well plates was used to test the activity. Reagents: 5,5′-dithiobis-(2-nitrobenzoic acid) (DTNB), eqBuChE and butyrylthiocholine iodide (BTC) were purchased from Sigma-Aldrich (Steinheim, Germany). hBuChE was from Vivonics (Bedford, MA, USA). The enzymes were prepared by dissolving in demineralized water to a concentration of 0.384 U/ml. Stock solutions of test compounds were prepared by dissolving in DMSO to a concentration of 0.0034 M. They were then diluted with water to obtain the appropriate concentrations in the wells. In the first step of the test, 25 μl of test compound (or DMSO/water mixture at the appropriate ratio for blank samples) was incubated in 0.1 M phosphate buffer (200 μl, pH=8.0) with DTNB (20 μl; 0.0025M) and with the appropriate enzyme (20 μl; eqBuChE or hBuChE) at 25° C. (animal enzyme) or 36° C. (human enzyme). After a 5 minutes incubation period, 20 μl of BTC solution (0.00375 M) was added. After another 5 minutes, the changes in absorbance of the solutions were measured at 412 nm using a multifunctional microplate reader (EnSpire Multimode; PerkinElmer; Waltham, MA, USA). All compounds were tested at a screening concentration of 10 μM (eqBuChE) or 1 μM (hBuChE). The percentage of enzyme inhibition was calculated from the equation 100-(S/B)×100, where S and B were the enzymatic activity in the test sample well and in the well without sample, respectively. […] All reactions were performed in triplicate. IC50 values were calculated using non-linear regression (GraphPad Prism 5 [GraphPad Software, San Diego, CA, USA 5.00]) for the percentage of enzyme inhibition against the inhibitor concentration used. Tacrine and donepezil were used as reference compounds.

[2] = biological target: horse plasma butyrylcholinesterase (eqBuChE) (Equus caballus (Horse), UniProt P81908); experiment: Ellman's test, inhibition of horse plasma butyrylcholinesterase; format: biochemical
Sequence of horse plasma butyrylcholinesterase (eqBuChE) (P81908 whole entry): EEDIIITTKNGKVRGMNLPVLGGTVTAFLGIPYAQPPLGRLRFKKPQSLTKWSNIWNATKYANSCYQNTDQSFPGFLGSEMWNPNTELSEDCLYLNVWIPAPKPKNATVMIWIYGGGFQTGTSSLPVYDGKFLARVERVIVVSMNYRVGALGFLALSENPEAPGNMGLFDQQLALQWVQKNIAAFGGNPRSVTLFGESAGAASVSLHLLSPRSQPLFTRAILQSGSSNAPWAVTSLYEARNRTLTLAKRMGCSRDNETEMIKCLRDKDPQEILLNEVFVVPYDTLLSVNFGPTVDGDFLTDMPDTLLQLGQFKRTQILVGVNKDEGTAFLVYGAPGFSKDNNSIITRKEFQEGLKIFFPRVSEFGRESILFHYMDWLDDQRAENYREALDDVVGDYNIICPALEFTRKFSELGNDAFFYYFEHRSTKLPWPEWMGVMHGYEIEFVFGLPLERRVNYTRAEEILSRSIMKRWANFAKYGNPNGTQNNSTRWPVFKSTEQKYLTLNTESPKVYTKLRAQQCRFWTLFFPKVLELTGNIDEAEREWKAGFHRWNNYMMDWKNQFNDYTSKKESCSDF
Protocol: as §1

[3] = biological target: mGAT2 (Mus musculus (Mouse), UniProt P31651); experiment: [3H]GABA uptake inhibition, mGAT2 in HEK293 cells; format: cell-based; conditions: inhibitor at 100 μM; remaining reuptake
Sequence of mGAT2 (P31651 whole entry): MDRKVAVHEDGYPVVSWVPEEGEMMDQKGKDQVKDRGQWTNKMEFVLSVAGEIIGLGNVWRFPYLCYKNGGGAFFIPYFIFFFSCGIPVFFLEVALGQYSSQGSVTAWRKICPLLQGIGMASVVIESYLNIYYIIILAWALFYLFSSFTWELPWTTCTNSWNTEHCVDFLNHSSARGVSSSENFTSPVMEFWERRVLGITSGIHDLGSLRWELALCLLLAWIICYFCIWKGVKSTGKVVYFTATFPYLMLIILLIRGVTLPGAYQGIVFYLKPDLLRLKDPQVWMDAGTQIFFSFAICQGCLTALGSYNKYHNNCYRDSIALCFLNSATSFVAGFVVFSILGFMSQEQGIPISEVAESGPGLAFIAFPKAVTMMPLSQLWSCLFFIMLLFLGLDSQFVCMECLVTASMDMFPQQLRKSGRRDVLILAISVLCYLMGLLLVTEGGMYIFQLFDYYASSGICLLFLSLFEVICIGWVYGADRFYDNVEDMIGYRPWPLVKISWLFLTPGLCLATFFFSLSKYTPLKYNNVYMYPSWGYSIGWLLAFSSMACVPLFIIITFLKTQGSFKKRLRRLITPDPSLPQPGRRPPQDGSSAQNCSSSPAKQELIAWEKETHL
Protocol: (§2) Exemplary compounds according to the invention were screened at the Ludwig-Maximilian University of Munich to determine the inhibitory ability towards four mouse GAT transporters (mGAT1-mGAT4). […] The biological material was stably transfected human embryonic kidney HEK293 cells, expressing genes to the appropriate transporters. The generated radioactivity was measured with a liquid scintillation counter. […] These determinations were made according to the procedure described in detail in A. Kragler, G. Höfner, K. T. Wanner, Novel parent structures for inhibitors of the murine GABA transporters mGAT3 and mGAT4, Eur. J. Pharmacol. 519 (2005) 43-47.

[4] = biological target: mGAT4 (Mus musculus (Mouse), UniProt P31650); experiment: [3H]GABA uptake inhibition, mGAT4 in HEK293 cells; format: cell-based
Sequence of mGAT4 (P31650 whole entry): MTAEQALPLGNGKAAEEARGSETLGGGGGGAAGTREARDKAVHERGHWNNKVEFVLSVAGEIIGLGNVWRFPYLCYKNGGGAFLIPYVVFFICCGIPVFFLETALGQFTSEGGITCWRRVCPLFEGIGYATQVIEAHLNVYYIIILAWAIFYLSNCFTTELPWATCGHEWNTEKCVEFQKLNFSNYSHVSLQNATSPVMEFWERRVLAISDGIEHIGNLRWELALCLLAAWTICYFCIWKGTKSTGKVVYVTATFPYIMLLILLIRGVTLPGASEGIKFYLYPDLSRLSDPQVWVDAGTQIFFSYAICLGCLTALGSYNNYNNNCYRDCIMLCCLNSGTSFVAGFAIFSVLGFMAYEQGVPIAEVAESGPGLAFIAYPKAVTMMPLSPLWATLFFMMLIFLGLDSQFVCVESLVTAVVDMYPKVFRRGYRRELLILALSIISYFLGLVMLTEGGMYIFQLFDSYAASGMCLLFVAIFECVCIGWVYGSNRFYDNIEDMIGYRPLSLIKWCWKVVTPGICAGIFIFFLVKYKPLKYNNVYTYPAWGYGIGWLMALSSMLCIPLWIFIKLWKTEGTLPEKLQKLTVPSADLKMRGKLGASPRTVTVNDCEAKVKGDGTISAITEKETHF
Protocol: as §2

[5] = biological target: mGAT1 (Mus musculus (Mouse), UniProt P31648); experiment: [3H]GABA uptake inhibition, mGAT1 in HEK293 cells; format: cell-based
Protocol: as §2

[6] = biological target: Recombinant human Aβ1-42 peptide (Homo sapiens (Human), UniProt P05067); experiment: Thioflavin T test, antiaggregation activity against beta-amyloid; format: biochemical; conditions: 10 μM test compound, 1.5 μM Aβ1-42; read-out: inh. Aβ aggr. % inh
Sequence of Recombinant human Aβ1-42 peptide (P05067 672-713): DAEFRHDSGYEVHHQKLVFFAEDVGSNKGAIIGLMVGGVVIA
Protocol: The thioflavin T test [Levine III] was used for the determinations. Recombinant human Aβ1-42 peptide (HFIP pretreated, Merck Millipore, Darmstadt, Germany) was dissolved in DMSO to form a 75 μM stock solution. The solution was further diluted in HEPES buffer (150 mM HEPES, pH 7.4, 150 mM NaCl) to a concentration of 7.5 μM. Then, the Aβ1-42 solution was added to the test compounds (black 96-well plates were used) and diluted with thioflavin T solution (10 μM final concentration). The final mixture contained 1.5 μM Aβ1-42, 10 μM test compound, and 3% of DMSO. Fluorescence was measured every 300 s (excitation wavelength was 440 nm, emission wavelength was 490 nm) with continuous mixing between measurements. A multifunction microplate reader (Synergy H4; BioTek Instruments, Inc., Winooski, VT, USA) was used to measure the fluorescence. Fluorescence started increasing after approximately 4 hours, plateaued after 20 hours and remained virtually unchanged for the next 28 hours of incubation. The plateau-phase fluorescence intensities (in the presence and absence of test compounds) were averaged and the mean fluorescence values for the respective wells at t=0 h were subtracted from them. […] IC50 values were calculated using non-linear regression (GraphPad Prism 5 [GraphPad Software, San Diego, CA, USA 5.00]) for the percentage of aggregation inhibition against the inhibitor concentration used.

[7] = biological target: human recombinant beta-secretase (hBACE1) (Homo sapiens (Human), UniProt P56817); experiment: FRET assay, inhibition of human recombinant beta-secretase; format: biochemical; conditions: 50 μM inhibitor concentration; read-out: hBACE-1 % inh
Sequence of human recombinant beta-secretase (hBACE1) (P56817 46-501): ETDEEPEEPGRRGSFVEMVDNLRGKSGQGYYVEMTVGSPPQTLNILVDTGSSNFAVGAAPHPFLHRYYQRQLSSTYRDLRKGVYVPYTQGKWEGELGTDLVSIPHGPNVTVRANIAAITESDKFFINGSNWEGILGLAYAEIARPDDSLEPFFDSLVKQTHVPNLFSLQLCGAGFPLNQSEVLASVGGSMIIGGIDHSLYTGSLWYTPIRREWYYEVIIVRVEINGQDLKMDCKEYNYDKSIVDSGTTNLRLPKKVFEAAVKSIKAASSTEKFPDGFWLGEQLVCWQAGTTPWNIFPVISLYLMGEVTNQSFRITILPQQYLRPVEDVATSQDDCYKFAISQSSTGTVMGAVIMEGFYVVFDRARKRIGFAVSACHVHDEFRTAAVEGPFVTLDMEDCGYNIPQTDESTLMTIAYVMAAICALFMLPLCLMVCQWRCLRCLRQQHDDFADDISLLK
Protocol: The FRET assay [Vassar, et al.] was used to test activity using 384-well black plates and a microplate reader (EnSpire Multimode; PerkinElmer; Waltham, MA, USA). The test was purchased from Life Technologies Polska Sp. z o.o. (Warsaw, Poland). […] Stock solutions of test compounds were prepared in DMSO and then further diluted with assay buffer (50 mM sodium acetate; pH 4.5) to the appropriate concentrations in the wells. In the first step of the test, 10 μl of the substrate (Rh-[…] quencher, based on the so-called Swedish APP mutation) was mixed with 10 μl of the test compound (or assay buffer; for blank sample). The enzyme reaction was initiated by adding 10 μl of enzyme (hBACE1, 1 U/ml). The reaction mixture was incubated at 25° C. for 60 minutes, then 10 μL of Stop solution (2.5 M sodium acetate) was added. After stopping the reaction, fluorescence was measured at 576 nm. The percentage of enzyme inhibition was calculated from the formula [1−(S60−S0)/(C60−C0)]×100, where S0 and S60 are the fluorescence of the test sample (containing the enzyme, substrate and test compound) at the start of the reaction and after 60 minutes, respectively, whereas C0 and C60 were analogous fluorescence intensities in the blank samples (containing enzyme, substrate and buffer). All test compounds were tested at a concentration of 50 μM in triplicate. […] A BACE1 IV inhibitor (Calbiochem, Merck; Nottingham, UK) [Stachel et al.] was used as a reference compound. […] IC50 values for all test compounds were calculated using non-linear regression (GraphPad Prism 5 [GraphPad Software, San Diego, CA, USA 5.00]) for the percentage of enzyme inhibition against the inhibitor concentration used.

[8] = biological target: mGAT3 (Mus musculus (Mouse), UniProt P31649); experiment: [3H]GABA uptake inhibition, mGAT3 in HEK293 cells; format: cell-based
Sequence of mGAT3 (P31649 whole entry): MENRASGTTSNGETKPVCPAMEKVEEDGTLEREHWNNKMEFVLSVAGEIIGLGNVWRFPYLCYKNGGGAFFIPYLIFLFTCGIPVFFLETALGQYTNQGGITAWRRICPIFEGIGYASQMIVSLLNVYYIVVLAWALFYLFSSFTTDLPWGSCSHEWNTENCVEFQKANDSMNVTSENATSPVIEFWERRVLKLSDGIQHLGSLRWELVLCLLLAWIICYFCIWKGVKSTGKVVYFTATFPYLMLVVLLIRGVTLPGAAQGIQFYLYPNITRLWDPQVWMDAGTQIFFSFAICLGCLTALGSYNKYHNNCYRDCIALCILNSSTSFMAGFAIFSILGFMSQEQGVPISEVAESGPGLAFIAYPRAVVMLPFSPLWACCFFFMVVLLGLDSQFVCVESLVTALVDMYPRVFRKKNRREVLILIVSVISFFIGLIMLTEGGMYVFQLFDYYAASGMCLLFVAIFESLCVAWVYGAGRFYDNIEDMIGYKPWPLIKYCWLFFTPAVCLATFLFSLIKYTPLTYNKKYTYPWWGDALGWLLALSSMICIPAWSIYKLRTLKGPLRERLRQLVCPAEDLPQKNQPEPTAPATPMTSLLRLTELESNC
Protocol: as §2

[9] = inhibitor at 100 μM, remaining reuptake

Sequence of human plasma butyrylcholinesterase (hBuChE) (P06276 29-602): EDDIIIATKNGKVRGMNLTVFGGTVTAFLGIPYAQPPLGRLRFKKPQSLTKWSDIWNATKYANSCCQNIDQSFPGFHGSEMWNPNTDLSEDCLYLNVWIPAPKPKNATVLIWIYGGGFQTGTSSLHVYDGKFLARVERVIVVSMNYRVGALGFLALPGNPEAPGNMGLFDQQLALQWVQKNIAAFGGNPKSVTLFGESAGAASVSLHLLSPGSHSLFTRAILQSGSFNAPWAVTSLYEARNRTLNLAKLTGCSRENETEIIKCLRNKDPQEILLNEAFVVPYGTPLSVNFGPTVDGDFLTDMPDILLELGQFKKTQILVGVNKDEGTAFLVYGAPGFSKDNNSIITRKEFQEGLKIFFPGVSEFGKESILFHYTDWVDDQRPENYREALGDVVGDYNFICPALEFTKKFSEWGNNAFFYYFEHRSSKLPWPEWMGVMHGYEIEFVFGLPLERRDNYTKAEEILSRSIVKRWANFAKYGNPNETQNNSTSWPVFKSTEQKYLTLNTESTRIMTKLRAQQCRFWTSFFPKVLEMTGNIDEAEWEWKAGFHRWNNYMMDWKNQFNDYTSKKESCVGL

| SMILES | inhibition at 1 µM ([1]; 1 μM inhibitor concentration, read-out: hBuChE % inh) [%] | inhibition at 10 µM ([2]; 10 μM inhibitor concentration, read-out: eqBuChE percent inhibition of enzyme) [%] | percentage of [3H]GABA reuptake retained, mGAT2 [3] [%] | percentage of [3H]GABA reuptake retained, mGAT4 [4, 9] [%] | percentage of [3H]GABA reuptake retained, mGAT1 [5, 9] [%] | inhibition at 10 µM [6] [%] | inhibition at 50 µM [7] [%] | percentage of [3H]GABA reuptake retained, mGAT3 [8, 9] [%] | IC50 [1] [µM] | IC50 [2] [µM] | IC50 ([4]; GABA reuptake, read-out: pIC50 (+/−SEM) mGAT4 (converted)) [µM] | pIC50 (+/−SEM) mGAT1 ([5]; GABA reuptake) | pIC50 (+/−SEM) mGAT3 ([8]; GABA reuptake) |
| --- | --- | --- | --- | --- | --- | --- | --- | --- | --- | --- | --- | --- | --- |
| C[C@H](NC[C@@H](O)[C@H](Cc1ccccc1)NC(=O)C1c2ccccc2-c2ccccc21)c1ccccc1 [Compound 22, N-((2S,3R)-3-hydroxy-1-phenyl-4-(((S)-1-phenylethyl)amino)butan-2-yl)-9H-fluorene-9-carboxamide] | < 10 | 42 | 97 | 69 | 83 | < 10 | 72.6 | 90 |  |  |  |  |  |
| CC(C)(C)CNC[C@@H](O)[C@H](Cc1ccccc1)NC(=O)CC1c2ccccc2-c2ccccc21 [Compound 27, 2-(9H-fluoren-9-yl)-N-((2S,3R)-3-hydroxy-4-(neopentylamino)-1-phenylbutan-2-yl)acetamide] |  |  | 52 |  |  | 53.5 | 52.4 |  | 0.207 | 0.383 | 13.8 | 4.32 | 4.52 |
